The results in this text go back to US9943592B2, “Vaccine adjuvants from self-assembling peptides” (priority 2011, dated 2018).

Square brackets hold non-standard residues; d marks the D form. Ends that are not written are not given here.

Series [1] relates to PRRSV. The series is described as follows: dynamic viremia after vaccination in pigs. To be noted: pig, in vivo. On the procedure: (§1) A stock solution of h9e peptide (concentration 1.75% by weight in water) was prepared. For the active agent, 2X Ingelvac PRRS MLV (Boehringer Ingelheim Vetmedica, St. Joseph, Mo.) was used. The vaccine was rehydrated by adding half of the contents of the accompanying liquid diluent to the vial containing the virus. Medium was then prepared by adding 0.3 ml bovine serum to 7.2 ml MEM medium (ion source). Next, 5 ml of the peptide stock solution was added to the medium and mixed well. This was then mixed with the vaccine solution. The final concentration of h9e as adjuvant was 0.35% by weight, and the final concentration of serum was […] by weight.
(§2) Vaccines were also prepared using a commercially-available adjuvant, Montanide™ Gel 01 (aqueous polymeric gel veterinary adjuvant, Seppic Inc., Fairfield, N.J.), or a published peptide hydrogel, designated herein as A1/2 (SEQ ID NO:28, corresponding to the N-terminal region of mineral directing gelator (MDG) 1; Gungormus, et al., Biomaterials 31 (2010) 7266-7274).
(§3) 55 PRRSV serum negative pigs were initially divided into 5 vaccination groups and vaccinated on Day 0. […]
(§4) At Day 0, all pigs were weighed, and weight was monitored weekly and recorded on Days 7, 14, 21, and 28. […] Body temperature and clinical signs were monitored daily and recorded. […]

The test system of series [2] is PRRSV. As to the kind of experiment: dynamic viremia after challenge in pigs. The series is classed as in vivo. To be noted: challenge with VR2332 or MN184a on day 28. On the procedure:
as §1, §2, §3, §4

Series [3] has as its system PRRSV. The series is described as follows: IDEXX ELISA Ab titer in pigs. The series is classed as in vivo. On the procedure: as §1, §2, §3, §4
Background: ELISA stands for enzyme-linked immunosorbent assay.

Series [4] can be described thus: solubility, stability and morphology of peptide and hydrogel. It counts as physicochemical. To be noted: for solubility of peptide in water: until pH adjusted to neutral or basic.
Series [5] can be described thus: rheology of peptide hydrogels (storage modulus G', amplitude sweep, temperature profile). It counts as physicochemical. On the procedure: (§5) The synthesized peptide was dissolved in DI water to a concentration of 5 mM by adjusting the pH to 8.0-10.0 with 1 M NaOH (Sigma). The h5e acidic solution and acidic h9e hydrogel were made by adjusting the pH to 4.0 with 1 M HCl (Sigma). The h9e Ca^2+ hydrogel was prepared by adding CaCl2 to a basic h9e peptide solution (molar ratio of peptide and Ca^2+ was 1:10, final pH was 7.0 to 9.0). The same method was used to prepare the h5e Ca^2+ solution.
The storage, G′, and loss, G″, moduli of h9e acidic and Ca^2+ hydrogels were determined on a rheometer system C-VOR 150 (Malvern instruments, Malvern, Worcestershire WR141XZ, United Kingdom) with a 20-mm diameter parallel plate geometry through frequency sweep (strain 1%, frequency 0.01 to 10 Hz, temperature 25° C.), amplitude sweep (strain 1 to 500%, frequency 1 Hz, temperature 25° C.), and temperature profile (strain 1%, frequency 1 Hz, Temperature 5° C., 20° C., 37° C., 50° C., 75° C., and 90° C.) measurements. The multiple amplitude sweep experiments were conducted to test the moduli recovery of peptide hydrogels. The time gap between every two tests was 10, 30, and 60 seconds for h9e Ca^2+ hydrogel.

Series [6] in a line: hydrogel formation of peptide solutions (ion or pH trigger). The conditions noted are these: 0.005M peptide concentration. The series is classed as physicochemical. On the procedure:
as §5

For the substance “A1/2: published peptide hydrogel, N-terminal region of mineral directing gelator (MDG) 1 (VKVKVKVKVPPTKVEVKVKV; Derivative of N-terminal region of mineral directing gelator (MDG) 1)”, the “viremia after vaccination compared to the MLV group” value in series [1] is reported as “no difference”. In addition, the viremia after challenge result in series [2] is given as “not”. In series [3], the “ELISA Ab titer after vaccination, compared among groups” value is reported as “lowest”.
Regarding FLIVIGPGGDGPGGD [h5e, FLIVIGPGGDGPGGD], in series [4], the “solubility of peptide in water” value is listed as “insoluble in water”.
With “FLIVIGSIIGPGGDGPGGD [h9e, FLIVIGSIIGPGGDGPGGD]”, the “general health / biological safety” value (immunized mice until sera collection) is reported as “biologically safe”. Under “vaccinated mice”, the “injection site reaction (redness or swelling)” value is “No injection site reaction”. In series [4], the “temperature stability of hydrogel” value is “up to 90 °C”, the “water solubility of hydrogel” value is “water soluble” and the “solubility of peptide in water” value is reported as “insoluble in water”.
With “FLIVIGSIIKKKKKKKKKK (Synthetic peptide adjuvant) [h9e variant with eD2 region replaced by K10]”, the “G' of hydrogel in basic pH” value in series [5] is listed as 55.0 ± 0.9 Pa.
Consider “GPGGDGPGGD (Hydrophilic region derived from spider flagelliform silk protein) [eD2]”, for which the “hydrogel formation in Ca^2+ solution” value in series [6] was “not able to form hydrogels”.
For “L5GSIIK10: L5K10 diblock peptide with GSII inserted (LLLLLGSIIKKKKKKKKKK)”, in series [6], the “hydrogel formation in Ca^2+ solution” value is “no hydrogel formation was observed”.
For “L5PP^DK10: L5K10 diblock peptide with sharp turning segment PP^D inserted (LLLLLP[dP]KKKKKKKKKK)”, in series [6], the “hydrogel formation in Ca^2+ solution” value is reported as “no hydrogel formation was observed”.
As for “LLLLLKKKKKKKKKK (Synthetic diblock peptide) [L5K10]”, in series [6], the “hydrogel formation in Ca^2+ solution” value is given as “no hydrogel formation was observed”.
